Data published in US20210293785A1, “METHODS FOR PREDICTING STEROID RESPONSIVENESS” (FLORIDA STATE UNIVERSITY RESEARCH FOUNDATION, INC., priority 2020, published 2021).

Tested on: keloid fibroblasts
Assay: Cell proliferation assay of patient-derived fibroblasts with or without steroid
Type: cell-based, human
Method: As depicted in the flow diagram of FIG. 3, in some embodiments, the method of the invention involves culturing small (˜2 mm) tissue pieces using standard cell culture media and conditions to allow the outgrowth of cells, which takes 1-2 weeks. Depending upon the desired cell type or cell types, non-invasive sampling methods can be utilized, such an oral rinse. The outgrown cells are collected by trypsinization and re-seeded in fresh wells. Upon attachment, the cells are treated in triplicate with or without 10 micromolar Triamcinolone Acetonide (TA), a potent synthetic steroid used widely in the clinic, or varying concentrations of any other test steroid. The viable cells are harvested 4-7 days post-treatment (when the untreated cells start approaching confluency) and counted to determine the effects of the steroid on cell proliferation. The inventors have tested the method of the invention using fibroblast cells derived from 3 normal human skin biopsies as well as 20 surgically excised keloids from patients and exposing them to TA, as well as hydrocortisone, another commonly used steroid in the clinic. The results were remarkably similar to those observed for the response of keloid patients to steroids in the clinic, with 52% of the samples being sensitive (responsive) to the TA treatment, while 39% were non-responsive and 9% were hyperproliferative in TA (which predicts a worsening of condition upon steroid therapy). In summary, our screening test described herein can be used to determine patients' responses to steroids in less than 4 weeks, following which responsive patients can undergo steroid therapy, while others can avoid the potentially harmful steroids altogether and seek other therapies. Culture of keloid derived primary fibroblast cells. Surgically excised keloid and normal skin explants were obtained from patients under Florida State University IRB (2016.19175 and 2017.22173). The explants were cut into small pieces, digested with trypsin, washed with and cultured in DMEM containing 10% fetal bovine serum and Antibiotic/Antimycotic solution maintained at 37° C. and 5% CO2. Outgrowth of only primary dermal fibroblasts occurred under our culture conditions and these were recovered by trypsinization for use in experiments at low passage. The keloid fibroblasts are morphologically identical to commercially obtained normal primary Human Dermal Fibroblasts (HDF) (Cell Applications, Cat.#106-05a) used in our controls. Cell proliferation assays. To determine relative cell survival following radiation or steroid treatments, 7,500 fibroblasts were seeded per well in triplicate in 12-well plates. Following attachment, the cells were treated with steroids or irradiated using a X-Rad 320 irradiator. Surviving fibroblasts were counted on a Coulter counter 7 days post-treatment.

[1] = fibroblasts from 3 normal human skin biopsies and 20 surgically excised keloids, 10 micromolar TA, cells counted 4-7 days post-treatment
[2] = keloid explants and fibroblasts, 10 μM TA for a week

## CC1(C)O[C@@H]2C[C@H]3[C@@H]4CCC5=CC(=O)C=C[C@]5(C)[C@@]4(F)[C@@H](O)C[C@]3(C)[C@]2(C(=O)CO)O1 [TA, Triamcinolone Acetonide]
[1]
  samples hyperproliferative in TA: 9%
  samples non-responsive to TA: 39%
  samples sensitive (responsive) to the TA treatment: 52%
[2]
  samples with hyperproliferation: 10%
  samples with modest reduction in proliferation (steroid sensitive): 50%
  samples with no significant effects on proliferation (steroid insensitive): 40%
